Data taken from patent US20220282271A1, “HERBICIDE RESISTANT PLANTS AND METHODS OF MAKING AND USING” (OFFICE OF INNOVATION ADVANCEMENT AND COMMERCIALIZATION, priority 2019, published 2022).
Where two headings read alike, the source gives them in different places.

Experiments:
[1] = test system: Eleusine indica biotypes (S, R1, R2); test: Herbicide rate screening assay (greenhouse, foliar-applied, visual injury); assay type: in vivo; details: for I50, estimated rate required to reduce Eleusine indica biotype by 50% (Visual Control/Injury) / I90, estimated rate required to reduce Eleusine indica biotype by 90% (Visual Control/Injury): injury scores 14 days after treatment; for Parameter estimate a of sigmoidal model y = a/(1 + exp(−(x − x0)/b)) for percent injury / Parameter estimate b of sigmoidal model y = a/(1 + exp(−(x − x0)/b)) for percent injury / Parameter estimate x0 of sigmoidal model y = a/(1 + exp(−(x − x0)/b)) for percent injury: x = log-transformed herbicide rate (kg/ha), 14 DAT
Excerpt: Three E. indica biotypes from different locations were used in this study. The R1 biotype was collected in Country Club of Virginia, Richmond, Va., and the R2 biotype was from River Bend Golf, New Bern, N.C. These two biotypes were previous confirmed resistant to preemergence application of oxadiazon, but have not been screened to other PPO inhibitors. The S biotype was collected from the Alabama Agricultural Experiment Station, Plant Breeding Unit, Tallassee, Ala., which was confirmed susceptible to PPO inhibitors. Seeds of the mature plants were harvested, air dried and stored in the 4° C. freezer until planted in the greenhouse.
Greenhouse conditions were 30±3° C. at day/night temperature and ˜70% average relative humidity. The E. indica seeds were placed on the soil surface and lightly covered with sand in 28 cm*20 cm flats and watered as needed daily to ensure germination. Two weeks after emergence, seedlings were separated and transplanted to in individual 10-cm pots (volumes=0.5 L). Pots were filled with surface horizon of Marvyn sandy loam (fine-loamy, kaolinitic, thermic Typic Kanhapludults) soil with pH 6.4 and 1.2% organic matter. The plants were irrigated three times daily for 2 min with overhead irrigation and fertilized once at one week after transplanting at approximately 50 kg N ha^−1 with Scott's Miracle-Gro All-Purpose fertilizer (The Scotts Miracle-Gro Co. Marysville, Ohio). Plants were 5-10 cm in height with 3-5 tillers in size at the time of herbicide treatment.
Herbicide treatments were foliar-applied at 280 L/ha using an enclosed spray chamber with a single 8002E nozzle (TeeJet Spray Systems Co, Wheaton, Ill.) at 32 PSI. Four herbicides were selected for the experiment: oxadiazon (Ronstar FLO, Bayer Environmental Sci., Research Triangle Park, N.C.), sulfentrazone (Dismiss, FMC Corporation, Philadelphia, Pa.), flumioxazin (Sureguard, Valent Corp., Walnut Creek, Calif.) and lactofen (Cobra, Valent Corp., Walnut Creek, Calif.). All the herbicides are from different herbicide chemical families of PPO inhibitors: oxadiazoles, triazolinone, N-phenylphthalimide and diphenyl ether, respectively. Herbicides were applied at 7 different rates based on each herbicide label rate: oxadiazon ranging from 0.14 to 8.96 kg/ha, sulfentrazone from 0.07 to 4.50 kg/ha, flumioxazin from 0.08 to 5.70 kg/ha, and lactofen from 0.029 to 1.75 kg/ha. A non-treated control (0 kg/ha) was included. 192 plants of each biotype were tested and experiments were conducted as completely random design, three replications for two runs.
The visual injury rating scores per plant at 14 days after treatment (DAT) were recorded, where the visual injury rating scores were based on a 0 to 100 scale, which 0 is equated to no phytotoxicity and 100 is equated to complete control. Data subjected to ANOVA analysis at a significance level of P<0.05 using the PROC GLM procedure of SAS 9.4 (SAS Institute Inc., Cary, N.C.). All the herbicide rates were log transformed to make equal spacing between the herbicide treatments in order to facilitate regression analysis. The non-treated control was transformed to equal spacing based on the log rates of each herbicide, respectively. Data were fitted to a sigmoidal model using SigmaPlot 10.2 (Systat Software Inc., London, UK) using a sigmoidal function (Equation 1).
y=a/(1+e^(−((x−x0)/b))) (1)
In this fit sigmoidal model, where y represents E. indica visual damage relative to non-treated control (%), x represents the log-transformed herbicide rates (kg/ha), three parameters (a, b, x0) represents the y intercept.

[2] = target: T1, recombinant wild-type E. indica PPO1 (Eleusine indica, UniProt A0A6G5XNV7); test: In vitro PPO enzyme activity inhibition, wild-type PPO1; assay type: biochemical; details: for Wild-type E. indica PPO1 % inhibition / inhibition at 10 µM: highest herbicide concentration 10^−5 M
T1 sequence (A0A6G5XNV7 1-529): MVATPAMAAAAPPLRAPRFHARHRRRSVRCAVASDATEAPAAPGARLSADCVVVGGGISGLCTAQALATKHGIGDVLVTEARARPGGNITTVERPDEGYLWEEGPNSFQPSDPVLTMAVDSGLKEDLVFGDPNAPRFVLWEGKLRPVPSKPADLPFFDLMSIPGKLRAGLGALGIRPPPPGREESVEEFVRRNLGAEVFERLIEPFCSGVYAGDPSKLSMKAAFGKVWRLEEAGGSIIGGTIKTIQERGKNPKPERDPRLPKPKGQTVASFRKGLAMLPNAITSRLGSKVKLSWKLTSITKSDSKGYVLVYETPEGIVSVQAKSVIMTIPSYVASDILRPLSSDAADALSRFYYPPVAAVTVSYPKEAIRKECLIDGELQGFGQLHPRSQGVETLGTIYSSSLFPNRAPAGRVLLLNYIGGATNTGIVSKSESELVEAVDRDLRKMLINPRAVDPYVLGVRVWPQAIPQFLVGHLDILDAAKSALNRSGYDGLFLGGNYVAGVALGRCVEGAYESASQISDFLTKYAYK
Excerpt: Effects of A212T substitution were studied using the E. indica backbone. The wild-type E. indica PPO1 and the E. indica PPO1 A212T variants were synthesized de novo and subcloned into pRSetB plasmid (Invitrogen, Carlsbad, Calif.). The complete description of expression and purification of E. indica PPO1 and E. indica PPO1 A212T variant proteins were referenced to the method described for PPO2 by Rangani et al. (2019, Frontiers in Plant Sci., 10:568). […] Oxadiazon, sulfentrazone, saflufenacil and lactofen are from the class of oxadiazole, triazolinone, pyrimidinedione, and diphenyl ether, respectively. Flumioxazin and trifludimoxazin are from the same chemical family, N-phenylphthalimide. […] The assay was replicated twice.

[3] = target: T2, recombinant variant E. indica PPO1 A212T (Eleusine indica, UniProt A0A6G5XNV7, A212T); test: In vitro PPO enzyme activity inhibition, variant PPO1 A212T; assay type: biochemical; details: for inhibition at 10 µM: read-out: Variant E. indica PPO1 A212T % inhibition
T2 sequence (A0A6G5XNV7 entry or part of it A212T): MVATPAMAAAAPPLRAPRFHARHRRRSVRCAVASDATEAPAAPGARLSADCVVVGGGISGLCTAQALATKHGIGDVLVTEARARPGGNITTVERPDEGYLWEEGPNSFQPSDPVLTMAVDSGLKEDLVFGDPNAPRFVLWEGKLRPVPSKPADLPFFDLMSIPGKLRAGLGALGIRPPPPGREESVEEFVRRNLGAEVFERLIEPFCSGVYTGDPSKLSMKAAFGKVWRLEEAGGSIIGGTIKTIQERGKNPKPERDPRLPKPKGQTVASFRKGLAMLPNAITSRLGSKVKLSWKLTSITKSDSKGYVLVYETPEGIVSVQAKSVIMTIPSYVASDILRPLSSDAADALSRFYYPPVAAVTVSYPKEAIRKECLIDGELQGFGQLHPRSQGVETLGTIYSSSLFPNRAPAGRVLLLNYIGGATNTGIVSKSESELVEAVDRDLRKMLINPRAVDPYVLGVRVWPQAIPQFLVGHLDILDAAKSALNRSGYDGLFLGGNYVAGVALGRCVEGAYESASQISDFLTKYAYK
Excerpt: Effects of A212T substitution were studied using the E. indica backbone. The wild-type E. indica PPO1 and the E. indica PPO1 A212T variants were synthesized de novo and subcloned into pRSetB plasmid (Invitrogen, Carlsbad, Calif.). The complete description of expression and purification of E. indica PPO1 and E. indica PPO1 A212T variant proteins were referenced to the method described for PPO2 by Rangani et al. (2019, Frontiers in Plant Sci., 10:568). Six PPO inhibitors, belonging to five different chemical families, were evaluated on the PPO enzyme activity at a concentrations ranging from 5.00×10^−5M to 5.12×10^−12M. Oxadiazon, sulfentrazone, saflufenacil and lactofen are from the class of oxadiazole, triazolinone, pyrimidinedione, and diphenyl ether, respectively. Flumioxazin and trifludimoxazin are from the same chemical family, N-phenylphthalimide. […] The assay was replicated twice.

[4] = target: T2, recombinant variant E. indica PPO1 A212T; test: as above; assay type: biochemical; details: highest herbicide concentration 10^−5 M
[5] = recombinant enzyme, in vitro, read-out: Wild-type E. indica PPO1 sensitivity [IC50]

SMILES | I50, estimated rate required to reduce Eleusine indica biotype by 50% (Visual Control/Injury) ([1]; R1 biotype) [kg ha^−1] | I90, estimated rate required to reduce Eleusine indica biotype by 90% (Visual Control/Injury) ([1]; R1 biotype) [kg ha^−1] | Parameter estimate a of sigmoidal model y = a/(1 + exp(−(x − x0)/b)) for percent injury ([1]; R1 biotype) | Parameter estimate b of sigmoidal model y = a/(1 + exp(−(x − x0)/b)) for percent injury ([1]; R1 biotype) | Parameter estimate x0 of sigmoidal model y = a/(1 + exp(−(x − x0)/b)) for percent injury ([1]; R1 biotype) | I50, estimated rate required to reduce Eleusine indica biotype by 50% (Visual Control/Injury) ([1]; R2 biotype) [kg ha^−1] | I90, estimated rate required to reduce Eleusine indica biotype by 90% (Visual Control/Injury) ([1]; R2 biotype) [kg ha^−1] | Parameter estimate a of sigmoidal model y = a/(1 + exp(−(x − x0)/b)) for percent injury ([1]; R2 biotype) | Parameter estimate b of sigmoidal model y = a/(1 + exp(−(x − x0)/b)) for percent injury ([1]; R2 biotype) | Parameter estimate x0 of sigmoidal model y = a/(1 + exp(−(x − x0)/b)) for percent injury ([1]; R2 biotype) | I50, estimated rate required to reduce Eleusine indica biotype by 50% (Visual Control/Injury) ([1]; S biotype) [kg ha^−1] | I90, estimated rate required to reduce Eleusine indica biotype by 90% (Visual Control/Injury) ([1]; S biotype) [kg ha^−1] | Parameter estimate a of sigmoidal model y = a/(1 + exp(−(x − x0)/b)) for percent injury ([1]; S biotype) | Parameter estimate b of sigmoidal model y = a/(1 + exp(−(x − x0)/b)) for percent injury ([1]; S biotype) | Parameter estimate x0 of sigmoidal model y = a/(1 + exp(−(x − x0)/b)) for percent injury ([1]; S biotype) | IC50 [2] [nM] | Wild-type E. indica PPO1 % inhibition [2] [%] | inhibition at 10 µM [2] [%] | IC50 [3] [nM] | inhibition at 10 µM [3] [%] | further results
C#CCN1C(=O)COc2cc(F)c(N3C(=O)C4=C(CCCC4)C3=O)cc21 [Flumioxazin, flumioxazin] | 0.08 | 0.10 | 96.53 | 0.04 | −1.11 | 0.08 | 0.10 | 96.81 | 0.04 | −1.11 | 0.08 | 0.09 | 98.00 | 0.02 | −1.09 | 16.7 | >90 | > 90 | 13.4 | > 90 | Variant E. indica PPO1 A212T % inhibition [4]: >90%
CC(C)N(C)S(=O)(=O)NC(=O)c1cc(-n2c(=O)cc(C(F)(F)F)n(C)c2=O)c(F)cc1Cl [Saflufenacil, saflufenacil] |  |  |  |  |  |  |  |  |  |  |  |  |  |  |  |  |  | > 90 | 449 | > 90 | IC50 [2, 5]: 19.4 nM
CCOC(=O)C(C)OC(=O)c1cc(Oc2ccc(C(F)(F)F)cc2Cl)ccc1[N+](=O)[O-] (stereo not drawn) [Lactofen, lactofen] | 0.04 | 0.51 | 84.65 | 0.29 | −1.44 | 0.06 | 0.50 | 89.20 | 0.30 | −1.31 | 0.03 | 0.17 | 90.29 | 0.13 | −1.52 | 26.4 | >90 | > 90 | 362 | > 90 | Variant E. indica PPO1 A212T % inhibition [4]: >90%
C#CCN1C(=O)C(F)(F)Oc2cc(F)c(-n3c(=O)n(C)c(=S)n(C)c3=O)cc21 [Trifludomoxazin, trifludimoxazin] |  |  |  |  |  |  |  |  |  |  |  |  |  |  |  |  | >90 |  |  |  | IC50 [2, 5]: 17.1 nM; IC50 ([3]; recombinant enzyme, in vitro, read-out: Variant E. indica PPO1 A212T sensitivity [IC50]): 26.5 nM; Variant E. indica PPO1 A212T % inhibition [4]: >90%
Cc1nn(-c2cc(NS(C)(=O)=O)c(Cl)cc2Cl)c(=O)n1C(F)F [Sulfentrazone, sulfentrazone] | 0.15 | 0.32 | 95.12 | 0.12 | −0.84 | 0.18 | 0.63 | 100.90 | 0.25 | −0.73 | 0.08 | 0.19 | 98.21 | 0.16 | −1.10 | 275 |  | > 90 | 1870 | 76 | 
